Measurements published in PMC6152655, “Determination and Pharmacokinetic Study of Three Diterpenes in Rat Plasma by UHPLC-ESI-MS/MS after Oral Administration of Rosmarinus officinalis L. Extract” (Molecules : A Journal of Synthetic Chemistry and Natural …, 2017).
Where two headings read alike, the source gives them in different places.

Experiments:
[1] = Pharmacokinetic study in rats after oral administration of R. officinalis extract (UHPLC-ESI-MS/MS of plasma); type: in vivo, Sprague-Dawley (SD) rats; parameters: Cmax: unit: ng/mL; settings: for Cmax / AUC(0-inf) / AUC(0-t) / Tmax / half-life: rat plasma, n = 6; for concentration at 0.5 h: plasma sample obtained at 0.5 h from a rat after oral administration of rosemary extract (Figure 2C)
Procedure: The validated method was successfully applied to pharmacokinetic studies of three diterpenes components after oral administration of rosemary at three different doses (0.25, 0.82, 2.45 g/kg). […] Therefore, we set low, medium and high doses in this study.
The main pharmacokinetic parameters of the analytes were calculated with DAS 2.0 (Shanghai, China) by non-compartmental analysis.
For the preparation of the extract, 100 g of dried leaves of R. officinalis were extracted under reflux with 1 L ethanol-water (80:20, v/v) for three times, 1 h for each time, and then filtrated. The combined filtrate was evaporated to dryness, and the residue was dissolved in water to get a concentration equivalent to 0.1 g/mL of the R. officinalis extract.
Male Sprague-Dawley (SD) rats (body weight 220 ± 50 g) were purchased and adapted under 65% RH, 23–27°C. […] Eighteen rats were randomly divided into low (0.24 g/kg), medium (0.82 g/kg), high (2.45 g/kg) dose groups. The SD rats were fasted for 12 h before experiment, had free access to water even during the experiment. The blood (0.25 mL) was collected from the orbital venous plexus at 0.08, 0.25, 0.50, 1, 1.5, 2, 3, 4, 6, 8, 12 and 24 h after oral administration of R. officinalis extract. The plasma was immediately acquired by centrifugation at 4 °C and stored frozen at −20 °C until analysis.
Before the experiment, the plasma samples stored in −20 °C were thawed naturally at room temperature. Using the optimized method, 50 μL of I.S. (2120 ng/mL), 100 μL of methanol and 100 μL of 1 mol/L HCl were added to 100 μL of plasma sample followed with vortex-mixed for 30 s. The mixed sample was extracted with 3 mL of ethyl acetate by being vortex-mixed for 1 min. The upper organic layer was removed and evaporated to dryness under a stream of nitrogen at 40 °C after centrifuging at 3800 rpm for 5 min. The residue was reconstituted with 100 μL of acetonitrile-water (40:60, v/v), and then vortex-mixed for 2 min and filtered by a 0.22 μm membrane. 10 μL of the subsequent filtrate were injected into the UHPLC-ESI-MS/MS system [20].
The maximum plasma concentration (Cmax) and the time of maximum plasma concentration (tmax) were observed directly from the measured data. The elimination rate constant (Ke) was calculated by linear regression of the terminal points in a semi-log plot of the plasma concentration against time. The elimination half-life (t1/2) was calculated using the formula t1/2 = 0.693/Ke. The area under plasma concentration-time curve (AUC0→t) to the last measurable plasma concentration (Ct) was estimated by using the linear trapezoidal rule. The area under the plasma concentration-time curve to time infinity (AUC0→∞) was calculated as AUC0→∞ = AUC0→t + Ct/Ke. Pharmacokinetic parameters of the analytes were calculated with DAS 2.0 (Shanghai, China) by non-compartmental analysis.

[2] = parameters: method as in PMID 19309757; settings: rat, monomeric compound (purity ≥ 98%) instead of extract; cited from earlier work
[3] = Stability of the three diterpenes in rat plasma under different storage conditions; type: in vitro ADME; settings: n = 6; for Stability (% RE) Post-Preparative: extracted samples, 12 h at 4 °C; for Stability (% RE) Long-Term / Stability (% RE) Short-Term / Stability (% RE) Freeze-Thaw: rat plasma; for Stability (% RE) Long-Term: 2 weeks at −20 °C; for Stability (% RE) Short-Term: room temperature 4 h; for Stability (% RE) Freeze-Thaw: three freeze (−20 °C)-thaw cycles
Procedure: The stability of the three diterpenes was assessed under various conditions (Table 4). […] Moreover, all the investigated compounds were stable for 2 weeks when kept frozen at −20 °C. The stability including cycles of freeze-thaw stability (three freeze at −20 °C and thaw cycles), room temperature stability (storage for 4 h at ambient temperature), long-term stability (storage for 2 weeks at −20 °C), post-preparation stability (storage for 12 h after sample preparation at 4 °C) were tested at LQC, MQC, HQC levels with six replicates at each level. The results were compared with those for freshly prepared QC samples and the percentage concentration deviation was calculated. The accuracy should be within ± 15% in freshly prepared samples. All the testing QC samples of stability were determined by using the calibration curve of freshly prepared standard samples.

[4] = male, Sprague-Dawley, rat, plasma, po, 0.24 g/kg, oral R. officinalis extract 0.24 g/kg (low dose), read-out: Cmax
[5] = male, Sprague-Dawley, rat, plasma, po, 0.82 g/kg, oral R. officinalis extract 0.82 g/kg (medium dose), read-out: Cmax
[6] = male, Sprague-Dawley, rat, plasma, po, 2.45 g/kg, oral R. officinalis extract 2.45 g/kg (high dose), read-out: Cmax
[7] = male, Sprague-Dawley, oral R. officinalis extract 0.24 g/kg (low dose)
[8] = male, Sprague-Dawley, oral R. officinalis extract 0.82 g/kg (medium dose)
[9] = male, Sprague-Dawley, oral R. officinalis extract 2.45 g/kg (high dose)
[10] = high QC (25,800/3488/4080 ng/mL)
[11] = low QC (21.50/2.910/3.400 ng/mL)
[12] = medium QC (1075/145.3/170.0 ng/mL)
[13] = low QC (21.50/2.910/3.400 ng/mL carnosic acid/carnosol/rosmanol)

| Structure (SMILES) | Cmax [1, 4] [ng/mL] | Cmax [1, 5] [ng/mL] | Cmax [1, 6] [ng/mL] | concentration at 0.5 h ([1]; male, Sprague-Dawley) [ng/mL] | AUC(0-inf) [1, 7] [ng·h/mL] | AUC(0-t) [1, 7] [ng·h/mL] | Tmax [1, 7] [h] | half-life [1, 7] [h] | AUC(0-inf) [1, 8] [ng·h/mL] | AUC(0-t) [1, 8] [ng·h/mL] | Tmax [1, 8] [h] | half-life [1, 8] [h] | AUC(0-inf) [1, 9] [ng·h/mL] | AUC(0-t) [1, 9] [ng·h/mL] | Tmax [1, 9] [h] | half-life [1, 9] [h] | Stability (% RE) Post-Preparative [3, 10] [% RE] | Stability (% RE) Post-Preparative [3, 11] [% RE] | Stability (% RE) Post-Preparative [3, 12] [% RE] | Stability (% RE) Long-Term [3, 10] [% RE] | also measured |
| --- | --- | --- | --- | --- | --- | --- | --- | --- | --- | --- | --- | --- | --- | --- | --- | --- | --- | --- | --- | --- | --- |
| CC(C)c1cc2c(c(O)c1O)[C@@]1(C(=O)O)CCCC(C)(C)[C@@H]1CC2 [Carnosic acid] | 1210 ± 344 | 3960 ± 516 | 27500 | 27900 | 14900 | 9140 ± 1500 | 0.3 ± 0.11 | 8.02 ± 2.08 | 40000 | 28500 | 0.3 ± 0.11 | 12.8 ± 5.14 | 181000 | 146000 | 0.5 ± 0.31 | 12.8 ± 1.23 | 14.83 | 13.89 | 14.10 | 14.84 | Tmax [2]: 2.17 h; Stability (% RE) Long-Term [3, 11]: 13.78 % RE; Stability (% RE) Long-Term [3, 12]: 14.30 % RE; Stability (% RE) Short-Term [3, 10]: 14.84 % RE; Stability (% RE) Short-Term [3, 11]: 10.21 % RE; Stability (% RE) Short-Term [3, 12]: 14.80 % RE; Stability (% RE) Freeze-Thaw [3, 10]: 14.40 % RE; Stability (% RE) Freeze-Thaw [3, 13]: 14.04 % RE; Stability (% RE) Freeze-Thaw [3, 12]: 14.82 % RE |
| CC(C)c1cc2c(c(O)c1O)[C@@]13CCCC(C)(C)[C@@H]1C[C@@H]2OC3=O [Carnosol] | 217 ± 53.1 | 413 ± 42.6 | 1480 ± 266 | 1830 | 1820 ± 327 | 1470 ± 190 | 0.4 ± 0.13 | 12.3 ± 2.36 | 7360 ± 2740 | 3190 ± 316 | 0.27 ± 0.15 | 13.9 ± 6.95 | 17400 | 14000 | 0.7 ± 0.45 | 12.8 ± 3.15 | 2.09 | 2.32 | 0.66 | −0.48 | Cmax ([1]; oral R. officinalis extract 0.24 g/kg (low dose)): 216.56 ± 53.09 ng/mL; Cmax ([1]; oral R. officinalis extract 0.82 g/kg (medium dose)): 413.34 ± 42.59 ng/mL; Stability (% RE) Long-Term [3, 11]: 3.10 % RE; Stability (% RE) Long-Term [3, 12]: 14.49 % RE; Stability (% RE) Short-Term [3, 10]: −0.79 % RE; Stability (% RE) Short-Term [3, 11]: 8.07 % RE; Stability (% RE) Short-Term [3, 12]: −8.67 % RE; Stability (% RE) Freeze-Thaw [3, 10]: 0.30 % RE; Stability (% RE) Freeze-Thaw [3, 13]: 5.39 % RE; Stability (% RE) Freeze-Thaw [3, 12]: 8.40 % RE |
| CC(C)c1cc2c(c(O)c1O)[C@@]13CCCC(C)(C)[C@@H]1[C@H](OC3=O)[C@H]2O [Rosmanol] | 77.2 ± 10.5 | 188 ± 75.9 | 633 ± 118 | 568 | 552 ± 130 | 460 ± 54.9 | 0.25 | 8.88 ± 3.52 | 826 ± 138 | 678 ± 56.9 | 0.2 ± 0.18 | 9.75 ± 2.44 | 7980 ± 1650 | 5370 ± 927 | 0.55 ± 0.27 | 15.4 ± 3.54 | 4.60 | −0.30 | −7.65 | 9.17 | Cmax ([1]; oral R. officinalis extract 2.45 g/kg (high dose)): 633.41 ± 118.52 ng/mL; Stability (% RE) Long-Term [3, 11]: 7.17 % RE; Stability (% RE) Long-Term [3, 12]: −8.56 % RE; Stability (% RE) Short-Term [3, 10]: 0.65 % RE; Stability (% RE) Short-Term [3, 11]: 5.01 % RE; Stability (% RE) Short-Term [3, 12]: −8.16 % RE; Stability (% RE) Freeze-Thaw [3, 10]: −0.07 % RE; Stability (% RE) Freeze-Thaw [3, 13]: 4.65 % RE; Stability (% RE) Freeze-Thaw [3, 12]: −7.12 % RE |
